Results from paper PMC7356998, “Intrinsic Dissolution Rate Profiling of Poorly Water-Soluble Compounds in Biorelevant Dissolution Media” (Pharmaceutics, 2020).
Converted amounts (≈) assume the structure as drawn. Read-outs that look alike come from different tables or passages of the source. Marks after values point to notes of the source that are not given here.

Columns and labels:
[1] = apparent solubility, cited from earlier work; for SFaSSIF-V1: FaSSIF-V1 pH 6.5; for SFeSSIF-V1: FeSSIF-V1 pH 5
[2] = Intrinsic dissolution rate from controlled suspensions (SIDR), μDiss Profiler; type: physicochemical; conditions: for IDRFaSSIF-V1 / IDRFaSSIF-V2 / IDRFeSSIF-V2: suspension (S), 100 rpm, mean ± SD; for IDRFaSSIF-V1: FaSSIF-V1 pH 6.5, 37 °C; for IDRFaSSIF-V2: FaSSIF-V2 pH 6.5, 37 °C; for IDRFeSSIF-V2: FeSSIF-V2 pH 5.8, 37 °C; for IDR in fed-state medium (FeSSIF-V1) compared to fasted-state (FaSSIF-V1): suspension assays
Procedure: Controlled suspensions of the APIs were prepared by tip ultrasonication in suspension media. For compatibility reasons, the suspension medium composition was 2% PVP K30 and 0.2% SDS in MilliQ water for acidic and neutral compounds or 1% HPMC and 0.2% SDS in MilliQ water for basic compounds. Suspension media were stirred for at least an hour until a clear solution was obtained. All suspensions were prepared at a concentration of 4 mg API/mL suspension medium by weighing 16 mg of the compound into a glass vial and adding 4 mL of the corresponding suspension medium. The suspension was then briefly vortexed prior to 5 min of tip ultrasonication using a Vibra-Cell sonicator mounted with a 13 mm (Ø) probe tip (Sonics, Newtown, CT, USA). The following settings were used: 20% amplitude, pulse 10 s on and 5 s off. The vial containing the suspension was placed in a beaker with ice during ultrasonication to avoid heating. Felodipine and griseofulvin were treated slightly differently to avoid forming a large fraction of submicron-sized particles. The felodipine suspension was only ultrasonicated for 1 min, and the griseofulvin suspension was used immediately after vortexing and without ultrasonication. All prepared suspensions were kept in an oven at 37 °C prior to use in the dissolution experiments. Dissolution experiments were performed within three hours of sample preparation.
The freshly prepared suspension was diluted (100 µL in 1 mL MilliQ water) and immediately used for determination of hydrodynamic particle size by dynamic light scattering (DLS; Litesizer 500, Anton Paar GmbH, Graz, Austria) at 25 °C. Peak values from the intensity-based particle size distribution were used for calculating total particle surface area in the suspension following the approach of Andersson et al.. In case of bimodal particle size distributions, an intensity peak weighted average particle size was calculated. The following assumptions were made for the surface area calculations: (i) spherical particles, (ii) constant particle size, and (iii) constant number of particles during the initial phase of the dissolution experiment (i.e., under sink conditions or <0.3 × Sapp). Using these assumptions, the volume of each particle (Vparticle) is:(1) Vparticle=4πr^3/3, where r is the mean radius of the suspended particles. The particle surface area (SAparticle) is:(2) SAparticle=4πr^2, and the volume of compound (Vmaterial) added to the dissolution medium is:(3) Vmaterial=m/ρ, where m is the total mass of compound added and ρ is the density of the compound. The total number of particles (n) in the suspension can thus be calculated from:(4) nparticles=Vmaterial/Vparticle
Finally, the total surface area (A, cm^2) of all particles present in the suspension added to the dissolution medium is calculated through:(5) A=nparticlesSAparticle
Dissolution experiments were carried out in a small-scale dissolution apparatus using in situ fiber optic probes to measure the amount of drug dissolved over time by UV absorbance (μDiss Profiler, Pion Inc., Billerica, MA, USA). Drug dissolution was carried out from suspensions (S) or discs (D) depending on the solubility of the compound in the biorelevant media studied (Table 3). […].
Standard curves were established by adding aliquots of DMSO stock solutions of the compounds to 3 mL of biorelevant medium, respectively. Dissolution media were prepared following the protocol provided by Biorelevant.com Ltd. and used within 48 h after their preparation. The media were incubated at 37 °C for at least one hour prior to use in the dissolution experiments. The hydrodynamic diameter of the micelles/vesicles formed in the biorelevant media were measured by DLS (Table 2). […] The biorelevant dissolution medium was maintained at 37 °C in the μDiss Profiler and stirred at 800 rpm during addition of the DMSO stock aliquots. […]

[3] = Apparent solubility estimated from dissolution experiments in the μDiss Profiler; type: physicochemical; conditions: for solubility thermodynamic: thermodynamic from solid
Procedure: If literature values were not available, Sapp values were estimated from the dissolution experiments either from the steady state concentration reached during dissolution making use of an excess amount material, or by nonlinear regression analysis of the dissolution data in GraphPad Prism 7.04 (GraphPad Software Inc., San Diego, CA, USA). […] In these experiments, an excess amount of drug was added to triplicate Eppendorf tubes containing 1 mL of the respective dissolution medium. The tubes were vortexed and placed in a 37 °C incubator. Samples for HPLC analysis were taken 24, 48, and 72 h (triplicates at each time point) after initiation of the experiment to ensure that equilibrium had been reached. The samples were centrifuged at 37 °C, 23,000 g for 10 min (Heraeus Megafuge 8R, Thermo Scientific, Waltham, MA, USA). The supernatant was sampled, diluted 1:1 with acetonitrile, and kept refrigerated until HPLC analysis. The concentrations of the dissolved drugs were determined using a HPLC (Agilent Technologies 1290 Infinity, Santa Clara, CA, USA) with a Zorbax Eclipse XDB-C18 column (4.6 × 100 mm; Agilent Technologies, Santa Clara, CA, USA) kept at 40 °C. The injection volumes were 20 μL. A mobile phase 0.1% formic acid in acetonitrile: 0.1% formic acid in water 60:40 (v/v) and an isocratic flow rate at 1 mL/min were used for both naproxen and ethinylestradiol. UV absorbances were monitored at a wavelength of 232 nm for naproxen and 315 nm for ethinylestradiol. The retention time was 1.76 min for naproxen and 1.85 min for ethinylestradiol. Dissolution experiments were carried out in a small-scale dissolution apparatus using in situ fiber optic probes to measure the amount of drug dissolved over time by UV absorbance (μDiss Profiler, Pion Inc., Billerica, MA, USA). Drug dissolution was carried out from suspensions (S) or discs (D) depending on the solubility of the compound in the biorelevant media studied (Table 3). […] Glass vials (six in parallel), each containing 15 mL of biorelevant dissolution medium and a crossbar stirrer, were used for the dissolution experiments. The stirring rate was set to 100 rpm. Freshly prepared API suspensions were briefly vortexed to re-disperse any sediments and 500 μL of suspension was added to each vial to initiate the experiment. […] Experiments were run for at least 20 min with data collected every 1 s for the first 8 min and then once per minute for the remaining time. All dissolution experiments from suspensions were carried out in triplicate.

[4] = Intrinsic dissolution rate from miniaturized discs (DIDR), μDiss Profiler; type: physicochemical; conditions: disc (D), 100 rpm, mean ± SD; for IDRFaSSIF-V1: FaSSIF-V1 pH 6.5, 37 °C
Procedure: Dissolution experiments were carried out in a small-scale dissolution apparatus using in situ fiber optic probes to measure the amount of drug dissolved over time by UV absorbance (μDiss Profiler, Pion Inc., Billerica, MA, USA). Drug dissolution was carried out from suspensions (S) or discs (D) depending on the solubility of the compound in the biorelevant media studied (Table 3). […] Standard curves were established by adding aliquots of DMSO stock solutions of the compounds to 3 mL of biorelevant medium, respectively. Dissolution media were prepared following the protocol provided by Biorelevant.com Ltd. and used within 48 h after their preparation. The media were incubated at 37 °C for at least one hour prior to use in the dissolution experiments. The hydrodynamic diameter of the micelles/vesicles formed in the biorelevant media were measured by DLS (Table 2). […] Stirring was turned off while measuring the UV absorbance for each aliquot and the standard curve was established based on six aliquots. […] Intrinsic dissolution rates will henceforth be denoted 'IDR' for both SIDR and DIDR values determined in this study (see Table 3 for details).

[5] = FaSSIF-V1, 37 °C, pH 6.5, fassif, FaSSIF-V1 pH 6.5, determined from dissolution experiments in the μDiss Profiler, read-out: SFaSSIF-V1
[6] = FaSSIF-V1 pH 6.5, determined from dissolution experiments in the μDiss Profiler
[7] = FeSSIF-V1, 37 °C, pH 5, fessif, FeSSIF-V1 pH 5, determined from dissolution experiments in the μDiss Profiler, read-out: SFeSSIF-V1

Compound	IDRFaSSIF-V1 [2] [μg/min/cm^2]	IDRFaSSIF-V2 [2] [μg/min/cm^2]	IDRFeSSIF-V2 [2] [μg/min/cm^2]	SFaSSIF-V1 [1]	SFeSSIF-V1 [1]	other results
COc1ccc(CCN2CCC(Nc3nc4ccccc4n3Cc3ccc(F)cc3)CC2)cc1 [Astemizole]	8.6 ± 0.4	2.0 ± 0.2	–	97.9 ± 2.1 [15] μg/mL	182 ± 1 [15] μg/mL	SFaSSIF-V1 ([1]; listed as astemizole): ~ 100 μg/mL
CC(C)(Oc1ccc(CCNC(=O)c2ccc(Cl)cc2)cc1)C(=O)O [Bezafibrate]	32.7 ± 3.9	–	–	–	–	solubility thermodynamic [3, 5]: ~100 µg/mL (≈ 276 µM); SFaSSIF-V1 [3, 6]: 91.0 ± 8.9 µg/mL; SFeSSIF-V1 ([3]; FeSSIF-V1 pH 5, extrapolation of μDiss dissolution data by nonlinear regression (GraphPad Prism)): 105.7 ‡ μg/mL
COc1ccccc1OCCNCC(O)COc1cccc2[nH]c3ccccc3c12 (stereo not shown) [Carvedilol]	2.9 ± 0.5	1.5 ± 0.2	13.6 ± 0.6	55.9 ± 1.0 [15] μg/mL	305 ± 2 [15] μg/mL	–
C(=C\c1ccccc1)/CN1CCN(C(c2ccccc2)c2ccccc2)CC1 [Cinnarizine]	0.3 ± 0.01	–	–	–	–	–
C#C[C@]1(O)CC[C@H]2[C@@H]3CCC4=Cc5oncc5C[C@]4(C)[C@H]3CC[C@@]21C [Danazol]	0.14 ± 0.02	–	–	–	–	IDR in fed-state medium (FeSSIF-V1) compared to fasted-state (FaSSIF-V1) [2]: 28 fold
OCCN(CCO)c1nc(N2CCCCC2)c2nc(N(CCO)CCO)nc(N3CCCCC3)c2n1 [Dipyridamole]	0.5 ± 0.05	0.5 ± 0.03	1.7 ± 0.3	11.1 ± 3.0 [48] μg/mL	148.9 ± 19.7 [48] μg/mL	SFaSSIF-V1 ([1]; listed as dipyridamole): 11 to 13 µg/mL
CCOC(=O)C1=C(C)NC(C)=C(C(=O)OC)C1c1cccc(Cl)c1Cl (stereo not shown) [Felodipine]	0.8 ± 0.4	0.6 ± 0.2	1.5 ± 0.2	31.8 ± 1.7 [7] μg/mL	44.9 ± 9.2 [48] μg/mL	–
CC(C)OC(=O)C(C)(C)Oc1ccc(C(=O)c2ccc(Cl)cc2)cc1 [Fenofibrate]	0.04 ± 0.002	0.05 ± 0.001	2.7 ± 0.3	–	–	–
CC(C)(Oc1ccc(C(=O)c2ccc(Cl)cc2)cc1)C(=O)O [Fenofibric acid]	–	–	–	–	–	solubility thermodynamic [3, 5]: ~100 µg/mL (≈ 314 µM); SFaSSIF-V1 [3, 6]: 104.8 ± 1.0 µg/mL; solubility thermodynamic [3, 7]: 101 ± 3.8 µg/mL (≈ 318 µM); IDRFaSSIF-V1 [4]: 227 ± 33 μg/min/cm^2
COC1=CC(=O)C[C@@H](C)[C@]12Oc1c(Cl)c(OC)cc(OC)c1C2=O [Griseofulvin]	3.7 ± 0.6	–	–	23.4 ± 1.8 [41] μg/mL	29.2 ± 3.4 [41] μg/mL	IDR in fed-state medium (FeSSIF-V1) compared to fasted-state (FaSSIF-V1) [2]: lower
COc1ccc2c(c1)c(CC(=O)O)c(C)n2C(=O)c1ccc(Cl)cc1 [Indomethacin]	–	–	–	421.7 ± 17.6 [7] μg/mL	109.0 ± 7.0 [15] μg/mL	IDRFaSSIF-V1 [4]: 31 ± 1.3 μg/min/cm^2
COc1ccc2cc([C@H](C)C(=O)O)ccc2c1 [Naproxen]	–	–	–	–	–	IDRFaSSIF-V1 [4]: 144 ± 12 μg/min/cm^2; IDRFaSSIF-V2 ([4]; FaSSIF-V2 pH 6.5, 37 °C): 179 ± 11 μg/min/cm^2

Continued, in another order:

IDRFaSSIF-V1 [2] [μg/min/cm^2]	IDRFaSSIF-V2 [2] [μg/min/cm^2]	IDRFeSSIF-V2 [2] [μg/min/cm^2]	Compound	SFaSSIF-V1 [1]	SFeSSIF-V1 [1]	other results
13.9 ± 2.0	11.9 ± 1.0	7.9 ± 2.1	Cc1cccc(Nc2ccccc2C(=O)O)c1C [Mefenamic acid]	–	–	solubility thermodynamic [3, 5]: 36.6 ± 0.6 µg/mL (≈ 152 µM); solubility thermodynamic [3, 7]: 33.2 ± 0.7 µg/mL (≈ 138 µM)
1.1 ± 0.2	1.2 ± 0.1	5.2 ± 0.8	COc1ccc2c(c1OC)C(=O)O[C@@H]2[C@H]1c2c(cc3c(c2OC)OCO3)CCN1C [Noscapine]	–	–	SFaSSIF-V1 ([3]; FaSSIF-V1 pH 6.5, extrapolation of μDiss dissolution data by nonlinear regression (GraphPad Prism)): 13.4 ‡ μg/mL; SFaSSIF-V1 ([3]; FaSSIF-V1 pH 6.5, extrapolation of μDiss dissolution data by nonlinear regression (GraphPad Prism), listed as noscapine): 11 to 13 µg/mL
16.8 ± 0.5	–	–	CC(=O)[C@H]1CC[C@H]2[C@@H]3CCC4=CC(=O)CC[C@]4(C)[C@H]3CC[C@]12C [Progesterone]	25.5 ± 1.1 [50] μg/mL	78.6 ± 16.2 [41] μg/mL	–
3.4 ± 0.7	1.3 ± 0.8	–	CN1CC(=O)N2[C@H](c3ccc4c(c3)OCO4)c3[nH]c4ccccc4c3C[C@@H]2C1=O [Tadalafil]	5.9 ± 0.7 [7] μg/mL	–	solubility thermodynamic [3, 7]: 21 ± 0.5 µg/mL (≈ 53.9 µM); IDR in fed-state medium (FeSSIF-V1) compared to fasted-state (FaSSIF-V1) [2]: double
4.1 ± 0.8	12.9 ± 0.9	4.8 ± 0.6	Cc1c(Cl)cccc1Nc1ccccc1C(=O)O [Tolfenamic acid]	63.0 ± 2.7 [15] μg/mL	41.0 ± 0.5 [15] μg/mL	–
